The results in this text go back to US20120022142A1, “RNA Interference Mediated Inhibition of Signal Transducer and Activator of Transcription 1 (STAT1) Gene Expression Using Short Interfering Nucleic Acid (siNA)” (Merck Sharp & Dohme Corp., priority 2009, published 2012).

One series relates to STAT1 mouse mRNA. Put plainly: Initial screen of siNAs: STAT1 mRNA knock-down in NIH 3T3 cells (96-well transfection, Taqman RT-PCR). The format is cell-based. Conditions: 10 nM siNA, 24 hrs, normalized against GAPDH, average of 2 experiments. On the procedure: (§1) NIH 3T3 (mouse; ATCC cat# CRL-1658): Cells were cultured at 37° C. in the presence of 5% CO2 and grown in Dulbecco's modified Eagle's medium (DMEM) with 4 mM L-glutamine adjusted to contain 1.5 g/L sodium bicarbonate and 4.5 g/L glucose and supplemented with fetal bovine serum at a final concentration of 10%, 100 μg/mL of streptomycin, and 100 U/mL penicillin.
Cells were plated in all wells of a tissue-culture treated, 96-well plate at a final count of 5000 cells/well in 100 μL of the appropriate culture media. The cells were cultured for 24 hours after plating at 37° C. in the presence of 5% CO2.
After 24 hours, complexes containing siNA and RNAiMax were created as follows: A solution of RNAiMax diluted 33-fold in OPTI-MEM was prepared. In parallel, solutions of the siNAs for testing were prepared to a final concentration of 120 nM in OPTI-MEM. After incubation of RNAiMax/OPTI-MEM solution at room temperature for 5 min, an equal volume of the siNA solution and the RNAiMax solution were added together for each of the siNAs.
This solution was incubated at room temperature for 20 minutes. After incubation, 20 uL of the solution was added to each of the relevant wells. The final concentration of siNA in each well was 10 nM and the final volume of RNAiMax in each well was 0.3 ul.
The time of incubation with the RNAiMax-siNA complexes was 24 hours and there was no change in media between transfection and harvesting, unless otherwise indicated.
RNA was extracted from a 96-well plate using the TaqMan® Gene Expression Cells-to-CT™ Kit (Cat# 4399002) with a modified protocol. Briefly, a 60 uL (1 plate) or 110 uL (2 plates) of the Lysis Solution with DNase I was dispensed into each well of the Lysis Buffer Plate (twin.tec full skirt plate). The lysis buffer and stop plates were stored at 4° C. until the cells were washed.
The culture medium was aspirated and discarded from the wells of the culture plate. 50 uL of chilled DPBS was added to each well, then aspirated and discarded. The lysis was performed automatically using a BioMek FX instrument and method. After the Biomek method was completed, the lysis plate was incubated for 2 min at room temperature. The lysis plate can be stored for 2 hours at 4° C., or at −20° C. or −80° C. for two months.
Each well of the reverse transcription plate required 10 uL of 2× reverse transcriptase Buffer, 1 uL of 20× reverse transcription enzyme and 2 uL of nuclease-free water. The reverse transcription master mix was prepared by mixing 2× reverse transcription buffer, 20× reverse transcription enzyme mix, and nuclease-free water. 13 uL of the reverse transcription master mix was dispensed into each well of the reverse transcription plate (semi-skirted). A separate reverse transcription plate was prepared for each cell plate. The plate was loaded onto a Biomek NX or Biomek FX Dual-96 and the Biomek method was run. The program is programmed to automatically added 7 uL of lysate from the cell lysis procedure described above into each well of the reverse transcription plate. The plate is sealed and spun on a centrifuge (1000 rpm for 30 seconds) to settle the contents to the bottom of the reverse transcription plate. The plate is placed in a thermocycler at 37° C. for 60 min, 95° C. for 5 min, and 4° C. until the plate is removed from the thermocycler. Upon removal, if not used immediately, the plate was frozen at −20° C.
(§2) A series of probes and primers were used to detect the various mRNA transcripts of the genes of β-Actin (human cell line only), and of STAT1 and GAPDH in mouse and human cell lines. All Taqman probes and primers for the experiments here-in described were supplied as pre-validated sets by Applied Biosystems, Inc. (see Table 2).
The assays were performed on an ABI 7900 instrument, according to the manufacturer's instructions. […]
(In general: In qPCR the cycle at which signal appears reflects the starting amount.)

For the next series, the system named is STAT1 mRNA. Put plainly: Efficacy (% KD) and potency (IC50) of STAT1 mRNA knockdown of siNA leads in NIH3T3 cells. The format is cell-based, mouse. To be noted: mean ± S.D.; for IC50: STAT1 mRNA knockdown, read-out: Mouse (NIH3T3) IC50; for Mouse (NIH3T3) avg % KD: STAT1 mRNA, 30 nM siNA, at least three experiments. On the procedure: as §1, §2
The assays were performed on an ABI 7900 instrument, according to the manufacturer's instructions.
The expression level of the gene of interest and % knock-down was calculated using Comparative Ct method: […]
All calculations of IC50s were performed using SigmaPlot 10.0 software. The data were analyzed using the sigmoidal dose-response (variable slope) equation for simple ligand binding. In all of the calculations of the % knock-down, the calculation was made relative to the normalized level of expression of the gene of interest in the samples treated with the non-targeting control (Ctrl siNA) unless otherwise indicated.
Certain siNAs were further analyzed for efficacy in human A549 cells and mouse NIH3T3 cells. Percent KD/reduction is represented as mean±S.D. IC50 is represented as mean±S.D. The date is summarized from at least three separate experiments and within each experiment, the data point is calculated from an n=2. The final concentration of siNA used was 30 nM.

In a further series the test system is TLR3. The series is described as follows: TLR3 mediated immunostimulation (OAS1 mRNA increase) in NHBE cells. Conditions: % increase in OAS1 mRNA, 0.01-100 nM siNA, n = 3 donors. In kind it is cell-based, human. On the procedure: NHBE cell were treated as describe above in Example 2 and used for the measurement of endosomal TLR3 mediated immunostimulation, with the inclusion of polyI:C as a positive control for OAS1 mRNA upregulation. For the measurement of membrane bound TLR3 mediated immunostimulation, the NHBE cells were cultured at 1200 cells/per 96 well and siNAs administered in PBS in the absence of a delivery vehicle at (100 nM, 30 nM, 10 nM, 3 nM, 1 nM, 0.3 nM, 0.1 nM, 0.03 nM, 0.01 nM).
Cell surface TLR3 mediated immunostimulation responses were measured by recording the % increase in OAS1 mRNA levels when the NHBE cells were treated with the siNAs in the absence of a delivery vehicle. (% increase in OAS1 mRNA levels relative to the PBS dilutant).
To determine immunostimulation TLR3 mediated % increase in OAS1(immunostimulatory biomarker) mRNA levels, a nine point dose response was measured using 0.01-100 nM concentration of siNA 25368-DC and siNA 25372-DC.
Endosomal TLR3 mediated immuno stimulation was measured by recording the % increase in OAS1 mRNA levels when the NHBE cells were transfected with the siNAs. (% increase in OAS1 mRNA levels relative to the transfection agent control). The TLR3 agonist Poly I:C is used as a positive control for OAS1 mRNA induction.

[invAb] = inverted abasic unit; m = 2'-O-methyl; r = 2'-OH (RNA); f = 2'-fluoro

As a reminder, the IC50 is the point on the concentration scale where inhibition reaches its midpoint. In the case of “25351-DC: STAT1 siNA duplex, human target site 2249; modified strands SEQ ID NO: 39 and 40 (chain 1 CCUACACGAAGAAAGAACUTT; chain 2 AGUUCUUUCUUCGUGUAGGUU; chain 1: DNA at AGT, 2'-fluoro at CU, [invAb] at 5' end, 3' end, backbone not given here; chain 2: sugars from the 5' end rrrfffffffffmfmfmmmmm, backbone not given here)”, the “% KD Mouse” value in the series on STAT1 mouse mRNA is recorded as 82%. Further, in the series on STAT1 mRNA, the IC50 was determined as 0.248 ± 0.086 nM and the “Mouse (NIH3T3) avg % KD” value is reported as 85.1 ± 3.5%.
For the substance “25368-DC: STAT1 siNA duplex, human target site 782; modified strands SEQ ID NO: 73 and 74 (chain 1 GUAAAGUCAGAAAUGUGAATT; chain 2 UUCACAUUUCUGACUUUACUU; chain 1: DNA at AGT, 2'-fluoro at CU, [invAb] at 5' end, 3' end, backbone not given here; chain 2: sugars from the 5' end rrrmfmfffffmmffffmfmm, backbone not given here)”, in the series with TLR3, the “Immunostimulation TLR3 mediated OAS1” value is listed as “No significant effect up to 100 nM”. Besides, in the series on STAT1 mouse mRNA, the “% KD Mouse” value is on record as 87%. Also, in the series on STAT1 mRNA, the half-maximal inhibitory concentration (IC50) turned out to be 0.072 ± 0.023 nM and the “Mouse (NIH3T3) avg % KD” value is 89.9 ± 6.0%.
On to “25369-DC: STAT1 siNA duplex, human target site 602; modified strands SEQ ID NO: 75 and 76 (chain 1 GGAAAAGCAAGCGUAAUCUTT; chain 2 AGAUUACGCUUGCUUUUCCUU; chain 1: DNA at AGT, 2'-fluoro at CU, [invAb] at 5' end, 3' end, backbone not given here; chain 2: sugars from the 5' end rrrffmfmfffmfffffffmm, backbone not given here)”, for which, in the series with STAT1 mouse mRNA, the “% KD Mouse” value is recorded as 66%. Further, in the series with STAT1 mRNA, the half-maximal inhibitory concentration (IC50) is 0.58 ± 0.109 nM and the “Mouse (NIH3T3) avg % KD” value is 60.8 ± 3.5%.
For “25367-DC: STAT1 siNA duplex, human target site 966; modified strands SEQ ID NO: 71 and 72 (chain 1 GCUUGACAAUAAGAGAAAGTT; chain 2 CUUUCUCUUAUUGUCAAGCUU; chain 1: DNA at AGT, 2'-fluoro at CU, [invAb] at 5' end, 3' end, backbone not given here; chain 2: sugars from the 5' end rrrffffffmffmffmmmfmm, backbone not given here)”, the “% KD Mouse” value in the series on STAT1 mouse mRNA stood at 82%. In the series with STAT1 mRNA, the half-maximal inhibitory concentration (IC50) came to 0.16 ± 0.034 nM and the “Mouse (NIH3T3) avg % KD” value is listed as 84.6 ± 2.6%.
As for “25372-DC: STAT1 siNA duplex, human target site 968; modified strands SEQ ID NO: 81 and 82 (chain 1 UUGACAAUAAGAGAAAGGATT; chain 2 UCCUUUCUCUUAUUGUCAAUU; chain 1: DNA at AGT, 2'-fluoro at CU, [invAb] at 5' end, 3' end, backbone not given here; chain 2: sugars from the 5' end rrrffffffffmffmffmmmm, backbone not given here)”, the “Immunostimulation TLR3 mediated OAS1” value in the series with TLR3 was “No significant effect up to 100 nM”. Besides, the “% KD Mouse” value with STAT1 mouse mRNA is reported as 81%. Besides, in the series with STAT1 mRNA, the 50% inhibitory concentration (IC50) turned out to be 0.182 ± 0.051 nM and the “Mouse (NIH3T3) avg % KD” value stood at 87.3 ± 7.2%.
